Test results published in patent publication US10604554B2, “Double-acylated GLP-1 derivatives” (Novo Nordisk A/S, priority 2012, dated 2020).
Where two headings read alike, the source gives them in different places.

Legend:
human GLP-1 receptor [1] = biological target: T1, human GLP-1 receptor (Homo sapiens, UniProt P43220); assay: In vitro potency (CRE luciferase; whole cells); format: cell-based; parameters: EC50/pM (ratio 1% HSA/0% HSA): unit not given here; conditions: for EC50: BHK cells; for EC50/pM (ratio 1% HSA/0% HSA): ratio of EC50 at 1% HSA to EC50 at 0% HSA
T1 construct: expressed in transfected cells; host or cells: BHK cells, clone FCW467-12A/KZ10-1 (parent line BHKTS13), further transfected with CRE luciferase
T1 sequence (P43220 24-463): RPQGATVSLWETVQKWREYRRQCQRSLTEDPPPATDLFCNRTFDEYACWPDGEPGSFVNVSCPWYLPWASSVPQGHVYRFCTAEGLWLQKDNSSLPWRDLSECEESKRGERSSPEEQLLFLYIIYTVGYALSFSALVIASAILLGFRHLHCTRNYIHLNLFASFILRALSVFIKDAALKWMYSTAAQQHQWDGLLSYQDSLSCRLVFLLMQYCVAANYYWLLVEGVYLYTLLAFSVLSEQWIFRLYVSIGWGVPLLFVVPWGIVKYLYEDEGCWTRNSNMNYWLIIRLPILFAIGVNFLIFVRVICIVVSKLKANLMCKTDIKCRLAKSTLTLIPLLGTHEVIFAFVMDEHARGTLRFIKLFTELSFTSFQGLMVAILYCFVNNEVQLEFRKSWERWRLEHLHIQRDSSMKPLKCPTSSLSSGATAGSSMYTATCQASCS
Outline: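 Reporter: CRE-luciferase in BHK cells stably expressing human GLP-1R, 5×10^3 cells/well; compounds tested in buffer containing 0% or 1% HSA.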

human GLP-1 receptor [2] = biological target: T1, human GLP-1 receptor; assay: GLP-1 receptor binding (SPA, displacement of 125I-GLP-1); conditions: for IC50 (high HSA): heading: Receptor binding affinity IC50
Outline: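 Tracer [125I]-GLP-1(7-36)NH2 at 0.06 nM final competed on hamster stably transfected cell membranes captured by WGA SPA beads; 120 min, 30 °C, scintillation count.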

[3] = 0% HSA, read-out: In vitro potency (CRE luciferase) EC50 (0% HSA)
[4] = In vitro potency (CRE luciferase) EC50 (1% HSA), 1% HSA
[5] = 0.001% HSA (low albumin), read-out: Receptor binding affinity IC50 (low HSA)
[6] = Receptor binding affinity IC50 (high HSA), 2.0% HSA (high albumin)
[7] = In vitro potency (CRE luciferase) EC50 (0% HSA), 0% HSA
[8] = Receptor binding affinity IC50 (low HSA), 0.001% HSA (low albumin)

Row | EC50 (human GLP-1 receptor [1]; [3]) | IC50 (human GLP-1 receptor [2]; [5]) | IC50 (high HSA) (human GLP-1 receptor [2]; [6]) | SMILES | EC50 (human GLP-1 receptor [1]; [4]) | EC50/pM (ratio 1% HSA/0% HSA) (human GLP-1 receptor [1]) | EC50 (human GLP-1 receptor [1]; [7]) | IC50 (human GLP-1 receptor [2]; [6]) | IC50 (human GLP-1 receptor [2]; [8])
1 | 0.025 nM | 0.77 nM | 147 nM | CC[C@H](C)[C@H](NC(=O)[C@H](Cc1ccccc1)NC(=O)[C@H](CCC(=O)O)NC(=O)[C@H](CCCCNC(=O)[C@@H](N)CCCCNC(=O)COCCOCCNC(=O)COCCOCCNC(=O)CC[C@H](NC(=O)CCCCCCCCCCCCC(=O)O)C(=O)O)NC(=O)[C@H](C)NC(=O)[C@H](C)NC(=O)[C@H](CCC(N)=O)NC(=O)CNC(=O)[C@H](CCC(=O)O)NC(=O)[C@H](CC(C)C)NC(=O)[C@H](Cc1ccc(O)cc1)NC(=O)[C@H](CO)NC(=O)[C@H](CO)NC(=O)[C@@H](NC(=O)[C@H](CC(=O)O)NC(=O)[C@H](CO)NC(=O)[C@@H](NC(=O)[C@H](Cc1ccccc1)NC(=O)[C@@H](NC(=O)CNC(=O)[C@H](CCC(=O)O)NC(=O)C(C)(C)NC(=O)[C@@H](N)Cc1c[nH]cn1)[C@@H](C)O)[C@@H](C)O)C(C)C)C(=O)N[C@@H](C)C(=O)N[C@@H](Cc1c[nH]c2ccccc12)C(=O)N[C@@H](CC(C)C)C(=O)N[C@H](C(=O)N[C@@H](CCCNC(=N)N)C(=O)NCC(=O)N[C@@H](CCCNC(=N)N)C(=O)N[C@@H](CCCCNC(=O)[C@@H](N)CCCCNC(=O)COCCOCCNC(=O)COCCOCCNC(=O)CC[C@H](NC(=O)CCCCCCCCCCCCC(=O)O)C(=O)O)C(=O)O)C(C)C [Example 19, N^ε26-[(2S)-2-amino-6-[[2-[2-[2-[[2-[2-[2-[[(4S)-4-carboxy-4-(13-carboxytridecanoylamino)butanoyl]amino]ethoxy]ethoxy]acetyl]amino]ethoxy]ethoxy]acetyl]amino]hexanoyl], N^ε37-[(2S)-2-amino-6-[[2-[2-[2-[[2-[2-[2-[[(4S)-4-carboxy-4-(13-carboxytridecanoylamino)butanoyl]amino]ethoxy]ethoxy]acetyl]amino]ethoxy]ethoxy]acetyl]amino]hexanoyl]-[Aib^8,Arg^34,Lys^37]-GLP-1-(7-37)-peptide] | 0.051 nM | 2.5 |  |  | 
2 |  |  |  | CC[C@H](C)[C@H](NC(=O)[C@H](Cc1ccccc1)NC(=O)[C@H](CCC(=O)O)NC(=O)[C@H](CCCCNC(=O)[C@@H](N)CCCCNC(=O)COCCOCCNC(=O)CC[C@H](NC(=O)CC[C@H](NC(=O)CCCCCCCCCCCOc1ccc(C(=O)O)cc1)C(=O)O)C(=O)O)NC(=O)[C@H](C)NC(=O)[C@H](C)NC(=O)[C@H](CCC(N)=O)NC(=O)CNC(=O)[C@H](CCC(=O)O)NC(=O)[C@H](CC(C)C)NC(=O)[C@H](Cc1ccc(O)cc1)NC(=O)[C@H](CO)NC(=O)[C@H](CO)NC(=O)[C@@H](NC(=O)[C@H](CC(=O)O)NC(=O)[C@H](CO)NC(=O)[C@@H](NC(=O)[C@H](Cc1ccccc1)NC(=O)[C@@H](NC(=O)CNC(=O)[C@H](CCC(=O)O)NC(=O)C(C)(C)NC(=O)[C@@H](N)Cc1c[nH]cn1)[C@@H](C)O)[C@@H](C)O)C(C)C)C(=O)N[C@@H](C)C(=O)N[C@@H](Cc1c[nH]c2ccccc12)C(=O)N[C@@H](CC(C)C)C(=O)N[C@H](C(=O)N[C@@H](CCCNC(=N)N)C(=O)NCC(=O)N[C@@H](CCCNC(=N)N)C(=O)N[C@@H](CCCCNC(=O)[C@@H](N)CCCCNC(=O)COCCOCCNC(=O)CC[C@H](NC(=O)CC[C@H](NC(=O)CCCCCCCCCCCOc1ccc(C(=O)O)cc1)C(=O)O)C(=O)O)C(=O)O)C(C)C [Example 15, N^ε26-[(2S)-2-amino-6-[[2-[2-[2-[[(4S)-4-carboxy-4-[[(4S)-4-carboxy-4-[12-(4-carboxyphenoxy)dodecanoylamino]butanoyl]amino]butanoyl]amino]ethoxy]ethoxy]acetyl]amino]hexanoyl], N^ε37-[(2S)-2-amino-6-[[2-[2-[2-[[(4S)-4-carboxy-4-[[(4S)-4-carboxy-4-[12-(4-carboxyphenoxy)dodecanoylamino]butanoyl]amino]butanoyl]amino]ethoxy]ethoxy]acetyl]amino]hexanoyl]-[Aib^8,Arg^34,Lys^37]-GLP-1-(7-37)-peptide] | 0.327 nM | 93 | 0.0037 nM | 303 nM | 0.35 nM
3 |  |  |  | CC[C@H](C)[C@H](NC(=O)[C@H](Cc1ccccc1)NC(=O)[C@H](CCC(=O)O)NC(=O)[C@H](CCCCNC(=O)[C@@H](N)CCCCNC(=O)COCCOCCNC(=O)COCCOCCNC(=O)CC[C@H](NC(=O)CCCCCCCCCCCOc1ccc(C(=O)O)cc1)C(=O)O)NC(=O)[C@H](C)NC(=O)[C@H](C)NC(=O)[C@H](CCC(N)=O)NC(=O)CNC(=O)[C@H](CCC(=O)O)NC(=O)[C@H](CC(C)C)NC(=O)[C@H](Cc1ccc(O)cc1)NC(=O)[C@H](CO)NC(=O)[C@H](CO)NC(=O)[C@@H](NC(=O)[C@H](CC(=O)O)NC(=O)[C@H](CO)NC(=O)[C@@H](NC(=O)[C@H](Cc1ccccc1)NC(=O)[C@@H](NC(=O)CNC(=O)[C@H](CCC(=O)O)NC(=O)C(C)(C)NC(=O)[C@@H](N)Cc1c[nH]cn1)[C@@H](C)O)[C@@H](C)O)C(C)C)C(=O)N[C@@H](C)C(=O)N[C@@H](Cc1c[nH]c2ccccc12)C(=O)N[C@@H](CC(C)C)C(=O)N[C@H](C(=O)N[C@@H](CCCNC(=N)N)C(=O)NCC(=O)N[C@@H](CCCNC(=N)N)C(=O)N[C@@H](CCCCNC(=O)[C@@H](N)CCCCNC(=O)COCCOCCNC(=O)COCCOCCNC(=O)CC[C@H](NC(=O)CCCCCCCCCCCOc1ccc(C(=O)O)cc1)C(=O)O)C(=O)O)C(C)C [Example 14, N^ε26-[(2S)-2-amino-6-[[2-[2-[2-[[2-[2-[2-[[(4S)-4-carboxy-4-[12-(4-carboxyphenoxy)dodecanoylamino]butanoyl]amino]ethoxy]ethoxy]acetyl]amino]ethoxy]ethoxy]acetyl]amino]hexanoyl], N^ε37-[(2S)-2-amino-6-[[2-[2-[2-[[2-[2-[2-[[(4S)-4-carboxy-4-[12-(4-carboxyphenoxy)dodecanoylamino]butanoyl]amino]ethoxy]ethoxy]acetyl]amino]ethoxy]ethoxy]acetyl]amino]hexanoyl]-[Aib^8,Arg^34, Lys^37]-GLP-1-(7-37)-peptide] | 0.076 nM | 16 | 0.0048 nM | 154 nM | 0.3 nM
4 | 0.0022 nM | 0.76 nM | 545 nM | CC[C@H](C)[C@H](NC(=O)[C@H](Cc1ccccc1)NC(=O)[C@H](CCC(=O)O)NC(=O)[C@H](CCCCNC(=O)[C@@H](N)CCCCNC(=O)CC[C@H](NC(=O)CC[C@H](NC(=O)CC[C@H](NC(=O)CCCCCCCCCCCCCCC(=O)O)C(=O)O)C(=O)O)C(=O)O)NC(=O)[C@H](C)NC(=O)[C@H](C)NC(=O)[C@H](CCC(N)=O)NC(=O)CNC(=O)[C@H](CCC(=O)O)NC(=O)[C@H](CC(C)C)NC(=O)[C@H](Cc1ccc(O)cc1)NC(=O)[C@H](CO)NC(=O)[C@H](CO)NC(=O)[C@@H](NC(=O)[C@H](CC(=O)O)NC(=O)[C@H](CO)NC(=O)[C@@H](NC(=O)[C@H](Cc1ccccc1)NC(=O)[C@@H](NC(=O)CNC(=O)[C@H](CCC(=O)O)NC(=O)C(C)(C)NC(=O)[C@@H](N)Cc1c[nH]cn1)[C@@H](C)O)[C@@H](C)O)C(C)C)C(=O)N[C@@H](C)C(=O)N[C@@H](Cc1c[nH]c2ccccc12)C(=O)N[C@@H](CC(C)C)C(=O)N[C@H](C(=O)N[C@@H](CCCNC(=N)N)C(=O)NCC(=O)N[C@@H](CCCNC(=N)N)C(=O)N[C@@H](CCCCNC(=O)[C@@H](N)CCCCNC(=O)CC[C@H](NC(=O)CC[C@H](NC(=O)CC[C@H](NC(=O)CCCCCCCCCCCCCCC(=O)O)C(=O)O)C(=O)O)C(=O)O)C(=O)O)C(C)C [Example 13, N^ε26-[(2S)-2-amino-6-[[(4S)-4-carboxy-4-[[(4S)-4-carboxy-4-[[(4S)-4-carboxy-4-(15-carboxypentadecanoylamino)butanoyl]amino]butanoyl]amino]butanoyl]amino]hexanoyl], N^ε37-[(2S)-2-amino-6-[[(4S)-4-carboxy-4-[[(4S)-4-carboxy-4-[[(4S)-4-carboxy-4-(15-carboxypentadecanoylamino)butanoyl]amino]butanoyl]amino]butanoyl]amino]hexanoyl]-[Aib^8,Arg^34,Lys^37]-GLP-1-(7-37)-peptide] | 1.38 nM | 659 |  |  | 
